Source: PubChem BioAssay (NCI)
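In this assay, cells in 96-well plates receive the compound at five concentrations for 48 hours. Endpoints are linearly interpolated between the surrounding concentrations. Definition used: TGI = concentration required for complete inhibition of growth.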

Assays:
Assay in all cases: growth of human tumour cells (NCI), 48 h
A498 renal = system: A498 renal
HL-60(TB) leukemia = system: HL-60(TB) leukemia
IGROV1 ovarian = system: IGROV1 ovarian
MDA-MB-435 = system: MDA-MB-435
NCI/ADR-RES ovarian = system: NCI/ADR-RES ovarian
PC-3 prostate = system: PC-3 prostate
RPMI-8226 leukemia = system: RPMI-8226 leukemia
SF-295 CNS = system: SF-295 CNS
SK-MEL-28 melanoma = system: SK-MEL-28 melanoma
MCF7 breast = system: MCF7 breast
SN12C renal = system: SN12C renal

C=CCON(C(=O)OC(C)(C)C)C(C)(C)C
TGI (A498 renal): > 100 µM
TGI (HL-60(TB) leukemia): > 100 µM
TGI (IGROV1 ovarian): > 100 µM
TGI (MDA-MB-435): > 100 µM
TGI (NCI/ADR-RES ovarian): > 100 µM
TGI (PC-3 prostate): > 100 µM
TGI (RPMI-8226 leukemia): > 100 µM
TGI (SF-295 CNS): > 100 µM
TGI (SK-MEL-28 melanoma): > 100 µM

CN=c1sc2c(n1C)C(=O)c1ccccc1C2=O
TGI (A498 renal): 30.1 µM
TGI (IGROV1 ovarian): > 41.6 µM
TGI (MCF7 breast): 3.8 µM
TGI (MDA-MB-435): 0.374 µM
TGI (NCI/ADR-RES ovarian): 16.4 µM
TGI (PC-3 prostate): > 55.1 µM
TGI (RPMI-8226 leukemia): 24.6 µM
TGI (SF-295 CNS): 3.77 µM
TGI (SK-MEL-28 melanoma): 3.61 µM
TGI (SN12C renal): 3.05 µM

CC(C)(CN1CCCCC1)C(=O)/C=C/c1ccc(Br)cc1
TGI (A498 renal): 5.8 µM
TGI (HL-60(TB) leukemia): 5.83 µM
TGI (IGROV1 ovarian): 6.48 µM
TGI (RPMI-8226 leukemia): > 27.1 µM
TGI (SF-295 CNS): 17.4 µM
TGI (SK-MEL-28 melanoma): 11.7 µM
TGI (SN12C renal): 7.66 µM

COc1cc2nc(Cl)nc(NS(=O)(=O)c3cc4ccccc4s3)c2cc1OC
TGI (A498 renal): 35.3 µM
TGI (IGROV1 ovarian): 71.8 µM
TGI (MCF7 breast): > 100 µM
TGI (MDA-MB-435): 54.5 µM
TGI (NCI/ADR-RES ovarian): > 100 µM
TGI (PC-3 prostate): 75.6 µM
TGI (RPMI-8226 leukemia): 44.9 µM
TGI (SF-295 CNS): > 100 µM
TGI (SK-MEL-28 melanoma): 0.11 µM
TGI (SN12C renal): 90.6 µM

O=C1CC(c2ccc(Cl)cc2)=Nc2ccccc2N1
TGI (A498 renal): > 100 µM
TGI (HL-60(TB) leukemia): 57.6 µM
TGI (IGROV1 ovarian): > 100 µM
TGI (SF-295 CNS): > 100 µM
TGI (SK-MEL-28 melanoma): > 100 µM
TGI (SN12C renal): > 100 µM

CC(=O)NC1C(OCC(=O)NCCNc2ccc([N+](=O)[O-])c3[nH]c4ccccc4c(=O)c23)C(O)C(CO)OC1(C)OCc1ccccc1 (configuration not stated)
TGI (A498 renal): > 100 µM
TGI (IGROV1 ovarian): > 100 µM
TGI (MCF7 breast): > 100 µM
TGI (MDA-MB-435): > 100 µM
TGI (NCI/ADR-RES ovarian): > 100 µM
TGI (PC-3 prostate): > 100 µM
TGI (RPMI-8226 leukemia): > 100 µM
TGI (SF-295 CNS): > 100 µM
TGI (SN12C renal): > 100 µM

COC(=O)[C@@]12OC[C@]34C([C@@H](O)C1O)[C@@]1(C)CC(=O)C(OC(=O)CC(C)C(F)(F)F)=C(C)C1C[C@H]3OC(=O)[C@H](O)[C@H]42 (some centres not stated)
TGI (A498 renal): 0.625 µM
TGI (HL-60(TB) leukemia): 1.98 µM
TGI (IGROV1 ovarian): 45.5 µM
TGI (RPMI-8226 leukemia): 5.56 µM
TGI (SF-295 CNS): 42.5 µM
TGI (SK-MEL-28 melanoma): 18.2 µM
TGI (SN12C renal): 21.2 µM

CCOC(=O)c1cn(CC)c(=O)n2c1nc1ccccc12
TGI (A498 renal): > 100 µM
TGI (IGROV1 ovarian): > 100 µM
TGI (MCF7 breast): > 100 µM
TGI (MDA-MB-435): > 100 µM
TGI (NCI/ADR-RES ovarian): > 100 µM
TGI (PC-3 prostate): > 100 µM
TGI (RPMI-8226 leukemia): 75.1 µM
TGI (SF-295 CNS): > 100 µM
TGI (SK-MEL-28 melanoma): > 100 µM
TGI (SN12C renal): > 100 µM

COC1(OC)CCc2c(sc3ncnc(Nc4cccc(Br)c4)c23)C1
TGI (A498 renal): > 100 µM
TGI (IGROV1 ovarian): > 100 µM
TGI (MCF7 breast): > 100 µM
TGI (MDA-MB-435): > 100 µM
TGI (NCI/ADR-RES ovarian): 76.3 µM
TGI (PC-3 prostate): > 100 µM
TGI (RPMI-8226 leukemia): 59.5 µM
TGI (SF-295 CNS): > 100 µM
TGI (SN12C renal): > 100 µM

NNC(=O)C(=O)NN=C(C(Cl)(Cl)CO)C(Cl)(Cl)CO
TGI (A498 renal): > 100 µM
TGI (HL-60(TB) leukemia): 69.6 µM
TGI (IGROV1 ovarian): > 100 µM
TGI (RPMI-8226 leukemia): > 100 µM
TGI (SF-295 CNS): > 100 µM
TGI (SK-MEL-28 melanoma): 97.9 µM
TGI (SN12C renal): > 100 µM

c1cc(-c2ccc(-c3ccsc3)s2)cs1
TGI (A498 renal): > 100 µM
TGI (HL-60(TB) leukemia): 67 µM
TGI (IGROV1 ovarian): > 100 µM
TGI (MCF7 breast): > 100 µM
TGI (MDA-MB-435): > 100 µM
TGI (NCI/ADR-RES ovarian): 87.5 µM
TGI (RPMI-8226 leukemia): > 100 µM
TGI (SF-295 CNS): > 100 µM
TGI (SN12C renal): > 100 µM

CCN1/C(=C/C#C/C(C)=C\c2sc3ccc(Cl)cc3[n+]2CC)Sc2ccc(Cl)cc21
TGI (IGROV1 ovarian): 14.5 µM
TGI (MCF7 breast): 15.3 µM
TGI (MDA-MB-435): 13.7 µM
TGI (NCI/ADR-RES ovarian): 80.4 µM
TGI (PC-3 prostate): 9.11 µM
TGI (SF-295 CNS): 14.9 µM
TGI (SK-MEL-28 melanoma): 26.5 µM
TGI (SN12C renal): 16.1 µM

COc1ccc(-c2c(C3=NCCCN3)nnn2-c2ccccc2)cc1
TGI (A498 renal): > 100 µM
TGI (HL-60(TB) leukemia): > 100 µM
TGI (IGROV1 ovarian): > 100 µM
TGI (RPMI-8226 leukemia): > 100 µM
TGI (SF-295 CNS): > 100 µM
TGI (SK-MEL-28 melanoma): > 100 µM
TGI (SN12C renal): > 100 µM

C1CSCCSCCCS[C@@H]2CCCCC2SC1 (some centres not stated)
TGI (A498 renal): > 100 µM
TGI (HL-60(TB) leukemia): > 100 µM
TGI (IGROV1 ovarian): > 100 µM
TGI (RPMI-8226 leukemia): 52.6 µM
TGI (SF-295 CNS): > 100 µM
TGI (SK-MEL-28 melanoma): > 100 µM
TGI (SN12C renal): > 100 µM

CSC(=O)/C=C1\SS/C(=C\C(=O)SC)S1
TGI (A498 renal): 21.5 µM
TGI (IGROV1 ovarian): 11.6 µM
TGI (MCF7 breast): 9.19 µM
TGI (MDA-MB-435): 7.08 µM
TGI (NCI/ADR-RES ovarian): 8.71 µM
TGI (PC-3 prostate): 9.32 µM
TGI (RPMI-8226 leukemia): 5.27 µM
TGI (SF-295 CNS): 13.7 µM
TGI (SK-MEL-28 melanoma): 6.34 µM
TGI (SN12C renal): 3.79 µM

COC1(OC)c2occc2C(=N)c2ccc(=O)oc21
TGI (A498 renal): > 100 µM
TGI (HL-60(TB) leukemia): > 100 µM
TGI (IGROV1 ovarian): > 100 µM
TGI (MCF7 breast): > 100 µM
TGI (MDA-MB-435): > 100 µM
TGI (PC-3 prostate): > 100 µM
TGI (RPMI-8226 leukemia): > 100 µM
TGI (SF-295 CNS): > 100 µM
TGI (SK-MEL-28 melanoma): > 100 µM
TGI (SN12C renal): > 100 µM

O=c1cc(Nc2cccc(O)c2)[nH]c(=O)[nH]1
TGI (A498 renal): > 100 µM
TGI (HL-60(TB) leukemia): > 100 µM
TGI (IGROV1 ovarian): > 100 µM
TGI (MDA-MB-435): > 100 µM
TGI (NCI/ADR-RES ovarian): > 100 µM
TGI (PC-3 prostate): > 100 µM
TGI (RPMI-8226 leukemia): > 100 µM
TGI (SF-295 CNS): > 100 µM
TGI (SK-MEL-28 melanoma): > 100 µM
TGI (SN12C renal): > 100 µM

CCOC(=O)/C(=C/c1ccccn1)C(=O)c1ccccc1
TGI (A498 renal): 43.1 µM
TGI (HL-60(TB) leukemia): 5.3 µM
TGI (IGROV1 ovarian): 32.8 µM
TGI (RPMI-8226 leukemia): 13.2 µM
TGI (SF-295 CNS): 27.6 µM
TGI (SK-MEL-28 melanoma): 27.3 µM
TGI (SN12C renal): 27.2 µM
